Data: ChEMBL document CHEMBL5661983, “The selective anaplastic lymphoma receptor tyrosine kinase inhibitor ASP3026 induces tumor regression and prolongs survival in non-small cell lung cancer model mice” (Mol Cancer Ther, 2014)
pIC50: −log10 of the molar value. The source made the active and inactive calls. No cut-off for these calls is given here.

Assays:
[1] = Cmax in human NCI-H2228 cell xenografted NOD.CB17-Prkdcscid/J mouse tumor at 10 mg/kg/day for 5 days by HPLC-MS analysis; format: ADME, organism-based, Neoplasm; conditions: route po, time 5 day
[2] = biological target: T1, ALK tyrosine kinase receptor (Homo sapiens, UniProt Q9UM73); experiment: Inhibition of ALK in human NCI-H2228 cells assessed as reduction in AKT phosphorylation by measuring phosphorylated AKT level at 1000 nmol/L measured after 4 hrs by Western blot analysis relative to control; format: cell-based; parameters: scale not given: the % may be the effect or the level left
[3] = biological target: BDNF/NT-3 growth factors receptor (Homo sapiens, UniProt Q16620)
[4] = Toxicity in human NCI-H2228 cell xenografted NOD.CB17-Prkdcscid/J mouse assessed as change in body weight at 100 mg/kg, po administered twice daily for 14 days; format: organism-based; conditions: in vivo, 336 h, time 14 day
[5] = biological target: High affinity nerve growth factor receptor (Homo sapiens, UniProt P04629)
[6] = biological target: Tyrosine-protein kinase JAK2 (Homo sapiens, UniProt O60674)
Activated CDC42 kinase 1 = Activated CDC42 kinase 1 (Homo sapiens, UniProt Q07912)
in vivo [7] = conditions: NOD.CB17-Prkdcscid/J, mouse, tumour, po, 3 mg/kg
[8] = Cmax in human NCI-H2228 cell xenografted NOD.CB17-Prkdcscid/J mouse plasma at 1 mg/kg/day for 5 days by HPLC-MS analysis; format: ADME, organism-based; conditions: route po, time 5 day
Mus musculus = experiment: Antitumor activity against hEML4-ALK transgenic C57BL/6J mouse assessed as reduction in tumor mass at 100 mg/kg, po administered daily for 10 days and measured on day 11 by computed tomography scan analysis; format: functional, organism-based; conditions: time 11.0 day
NCI-H2228 [9] = experiment: Antitumor activity against human NCI-H2228 cells xenografted in NOD.CB17-Prkdcscid/J mouse assessed as tumor regression at 3 mg/kg, po administered once daily for 2 weeks relative to control; format: functional
[10] = biological target: Leukocyte tyrosine kinase receptor (Homo sapiens, UniProt P29376)
[11] = biological target: ALK tyrosine kinase receptor (Homo sapiens, UniProt Q9UM73, F1174L)
in vivo [12] = conditions: NOD.CB17-Prkdcscid/J, mouse, tumour, po, 1 mg/kg
[13] = Cmax in human NCI-H2228 cell xenografted NOD.CB17-Prkdcscid/J mouse tumor at 1 mg/kg/day for 5 days by HPLC-MS analysis; format: ADME, organism-based, Neoplasm; conditions: route po, time 5 day
[14] = biological target: T1, ALK tyrosine kinase receptor; experiment: Inhibition of ALK phosphorylation in human NCI-H2228 cells assessed as phosphorylated ALK level at 100 nmol/L measured after 4 hrs by Western blot analysis relative to control; format: cell-based; parameters: scale not given: the % may be the effect or the level left
NCI-H2228 [15] = experiment: Potentiation of pemetrexed-induced antitumor activity against human NCI-H2228 cells xenografted in NOD.CB17-Prkdcscid/J mouse assessed as reduction in tumor volume at 10 mg/kg, po administered once daily for 5 days; format: functional, organism-based; conditions: time 5.0 day
[16] = biological target: Epidermal growth factor receptor (Homo sapiens, UniProt P00533, L858R)
[17] = Tmax in human NCI-H2228 cell xenografted NOD.CB17-Prkdcscid/J mouse plasma at 1 mg/kg/day for 5 days by HPLC-MS analysis; format: ADME, organism-based; conditions: route po, time 5 day
[18] = biological target: Tyrosine-protein kinase FRK (Homo sapiens, UniProt P42685)
[19] = biological target: ALK tyrosine kinase receptor (Homo sapiens, UniProt Q9UM73, R1275Q)
NCI-H2228-Luc [20] = experiment: Antitumor activity against human NCI-H2228-Luc cells intrapleurally xenografted in NOD.CB17-Prkdcscid/J mouse assessed as median survival time at 10 mg/kg, po administered once daily for 7 weeks starting from 14 days post-cell inoculation measured up to 90 days (reference value: 39 day); format: functional; conditions: time 90 day
[21] = biological target: T1, ALK tyrosine kinase receptor; experiment: Inhibition of ALK phosphorylation in human NCI-H2228 cells assessed as phosphorylated ALK level at 1000 nmol/L measured after 4 hrs by Western blot analysis relative to control; format: cell-based; parameters: scale not given: the % may be the effect or the level left
[22] = Cmax in human NCI-H2228 cell xenografted NOD.CB17-Prkdcscid/J mouse tumor at 3 mg/kg/day for 5 days by HPLC-MS analysis; format: ADME, organism-based, Neoplasm; conditions: route po, time 5 day
[23] = Tmax in human NCI-H2228 cell xenografted NOD.CB17-Prkdcscid/J mouse plasma at 3 mg/kg/day for 5 days by HPLC-MS analysis; format: ADME, organism-based; conditions: route po, time 5 day
[24] = biological target: T1, ALK tyrosine kinase receptor; experiment: Inhibition of ALK in human NCI-H2228 cells assessed as reduction in ERK phosphorylation by measuring phosphorylated ERK level at 1000 nmol/L measured after 4 hrs by Western blot analysis relative to control; format: cell-based; parameters: scale not given: the % may be the effect or the level left
[25] = Toxicity in human NCI-H2228 cell xenografted NOD.CB17-Prkdcscid/J mouse assessed as change in body weight at 10 mg/kg, po administered once daily for 5 days in presence of pemetrexed; format: organism-based; conditions: in vivo, 120 h, time 5 day
NCI-H2228-Luc [26] = conditions: dose 30 mg/kg; route po; time 90 day
NCI-H2228-Luc [27] = experiment: Antitumor activity against human NCI-H2228-Luc cells intrapleurally xenografted in NOD.CB17-Prkdcscid/J mouse assessed as median survival time at 3 mg/kg, po administered once daily for 7 weeks starting from 14 days post-cell inoculation measured up to 90 days (reference value: 39 day); format: functional; conditions: time 90 day
[28] = Tmax in human NCI-H2228 cell xenografted NOD.CB17-Prkdcscid/J mouse tumor at 1 mg/kg/day for 5 days by HPLC-MS analysis; format: ADME, organism-based, Neoplasm; conditions: route po, time 5 day
Ephrin type-B receptor 4 = Ephrin type-B receptor 4 (Homo sapiens, UniProt P54760)
[29] = biological target: Tyrosine-protein kinase Lck (Homo sapiens, UniProt P06239)
[30] = biological target: T1, ALK tyrosine kinase receptor; experiment: Inhibition of ALK in human NCI-H2228 cells assessed as reduction in ERK phosphorylation by measuring phosphorylated ERK level at 10 nmol/L measured after 4 hrs by Western blot analysis relative to control; format: cell-based; parameters: scale not given: the % may be the effect or the level left
[31] = biological target: Tyrosine-protein kinase Yes (Homo sapiens, UniProt P07947)
NCI-H2228 [32] = experiment: Antiproliferative activity against human NCI-H2228 cell spheroids assessed as reduction in cell growth measured after 5 days by celltiter-glo luminescent cell viability assay; format: functional, cell-based; conditions: NCI-H2228, 120 h
[33] = biological target: Muscle, skeletal receptor tyrosine-protein kinase (Homo sapiens, UniProt O15146)

T1 sequence (Q9UM73 19-1620 limits assumed): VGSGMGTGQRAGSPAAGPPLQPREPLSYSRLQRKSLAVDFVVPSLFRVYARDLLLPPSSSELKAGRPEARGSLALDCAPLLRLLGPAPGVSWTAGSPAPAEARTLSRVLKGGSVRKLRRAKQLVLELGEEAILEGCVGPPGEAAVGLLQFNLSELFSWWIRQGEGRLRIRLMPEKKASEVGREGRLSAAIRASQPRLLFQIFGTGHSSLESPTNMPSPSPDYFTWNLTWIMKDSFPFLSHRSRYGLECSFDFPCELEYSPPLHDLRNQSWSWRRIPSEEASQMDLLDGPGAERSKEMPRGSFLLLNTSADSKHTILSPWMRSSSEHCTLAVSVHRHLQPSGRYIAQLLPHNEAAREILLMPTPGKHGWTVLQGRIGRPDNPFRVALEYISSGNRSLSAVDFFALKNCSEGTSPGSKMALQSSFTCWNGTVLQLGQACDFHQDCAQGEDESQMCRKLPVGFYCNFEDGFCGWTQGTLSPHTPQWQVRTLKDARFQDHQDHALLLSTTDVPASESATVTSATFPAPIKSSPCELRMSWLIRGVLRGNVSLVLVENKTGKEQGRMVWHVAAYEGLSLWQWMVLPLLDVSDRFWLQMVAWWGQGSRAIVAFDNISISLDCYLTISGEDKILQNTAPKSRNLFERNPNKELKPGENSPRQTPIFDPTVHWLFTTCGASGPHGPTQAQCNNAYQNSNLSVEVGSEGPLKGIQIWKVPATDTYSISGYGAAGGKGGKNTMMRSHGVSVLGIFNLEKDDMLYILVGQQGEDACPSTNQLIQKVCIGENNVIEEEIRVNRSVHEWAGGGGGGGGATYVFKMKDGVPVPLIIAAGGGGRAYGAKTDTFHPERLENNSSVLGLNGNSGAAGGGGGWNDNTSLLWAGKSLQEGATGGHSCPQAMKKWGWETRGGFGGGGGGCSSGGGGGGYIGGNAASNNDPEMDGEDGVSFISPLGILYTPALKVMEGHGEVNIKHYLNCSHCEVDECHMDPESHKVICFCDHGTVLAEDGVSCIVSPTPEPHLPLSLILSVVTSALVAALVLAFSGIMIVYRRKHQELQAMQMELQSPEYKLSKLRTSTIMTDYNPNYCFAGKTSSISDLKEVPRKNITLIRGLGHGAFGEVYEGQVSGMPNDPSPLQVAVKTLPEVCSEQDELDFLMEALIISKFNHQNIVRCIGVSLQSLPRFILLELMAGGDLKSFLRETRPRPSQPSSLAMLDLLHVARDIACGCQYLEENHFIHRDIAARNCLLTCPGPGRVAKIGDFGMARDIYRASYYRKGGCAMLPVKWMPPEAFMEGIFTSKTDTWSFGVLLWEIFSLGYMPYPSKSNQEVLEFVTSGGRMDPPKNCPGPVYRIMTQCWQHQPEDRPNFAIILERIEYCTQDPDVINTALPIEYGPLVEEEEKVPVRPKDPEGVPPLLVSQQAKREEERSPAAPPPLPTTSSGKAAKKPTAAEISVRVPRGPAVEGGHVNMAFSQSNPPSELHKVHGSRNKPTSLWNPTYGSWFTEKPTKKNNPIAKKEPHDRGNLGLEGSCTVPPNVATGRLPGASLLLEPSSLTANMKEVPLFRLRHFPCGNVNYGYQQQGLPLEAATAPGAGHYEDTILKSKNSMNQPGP
Sequence of High affinity nerve growth factor receptor (P04629 whole entry): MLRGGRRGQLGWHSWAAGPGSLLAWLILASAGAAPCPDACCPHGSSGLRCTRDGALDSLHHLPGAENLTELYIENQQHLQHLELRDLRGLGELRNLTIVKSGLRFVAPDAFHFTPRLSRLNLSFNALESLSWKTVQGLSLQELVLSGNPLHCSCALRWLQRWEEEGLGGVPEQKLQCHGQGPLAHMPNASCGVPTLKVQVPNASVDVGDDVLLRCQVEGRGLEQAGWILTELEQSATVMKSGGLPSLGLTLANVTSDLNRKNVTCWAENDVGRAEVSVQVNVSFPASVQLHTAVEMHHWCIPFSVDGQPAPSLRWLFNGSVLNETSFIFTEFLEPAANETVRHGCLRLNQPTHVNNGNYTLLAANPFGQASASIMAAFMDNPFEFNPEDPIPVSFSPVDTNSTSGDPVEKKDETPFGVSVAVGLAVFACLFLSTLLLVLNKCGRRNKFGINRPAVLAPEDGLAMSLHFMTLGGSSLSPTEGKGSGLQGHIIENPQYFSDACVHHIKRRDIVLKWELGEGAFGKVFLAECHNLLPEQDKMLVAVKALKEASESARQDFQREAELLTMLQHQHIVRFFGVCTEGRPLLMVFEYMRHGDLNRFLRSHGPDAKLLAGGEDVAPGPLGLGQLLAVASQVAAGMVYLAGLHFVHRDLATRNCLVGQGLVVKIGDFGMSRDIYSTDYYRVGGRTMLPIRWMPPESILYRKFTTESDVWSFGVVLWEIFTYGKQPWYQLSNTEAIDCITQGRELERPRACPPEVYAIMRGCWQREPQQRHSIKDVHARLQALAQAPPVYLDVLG
Sequence of Ephrin type-B receptor 4 (P54760 whole entry): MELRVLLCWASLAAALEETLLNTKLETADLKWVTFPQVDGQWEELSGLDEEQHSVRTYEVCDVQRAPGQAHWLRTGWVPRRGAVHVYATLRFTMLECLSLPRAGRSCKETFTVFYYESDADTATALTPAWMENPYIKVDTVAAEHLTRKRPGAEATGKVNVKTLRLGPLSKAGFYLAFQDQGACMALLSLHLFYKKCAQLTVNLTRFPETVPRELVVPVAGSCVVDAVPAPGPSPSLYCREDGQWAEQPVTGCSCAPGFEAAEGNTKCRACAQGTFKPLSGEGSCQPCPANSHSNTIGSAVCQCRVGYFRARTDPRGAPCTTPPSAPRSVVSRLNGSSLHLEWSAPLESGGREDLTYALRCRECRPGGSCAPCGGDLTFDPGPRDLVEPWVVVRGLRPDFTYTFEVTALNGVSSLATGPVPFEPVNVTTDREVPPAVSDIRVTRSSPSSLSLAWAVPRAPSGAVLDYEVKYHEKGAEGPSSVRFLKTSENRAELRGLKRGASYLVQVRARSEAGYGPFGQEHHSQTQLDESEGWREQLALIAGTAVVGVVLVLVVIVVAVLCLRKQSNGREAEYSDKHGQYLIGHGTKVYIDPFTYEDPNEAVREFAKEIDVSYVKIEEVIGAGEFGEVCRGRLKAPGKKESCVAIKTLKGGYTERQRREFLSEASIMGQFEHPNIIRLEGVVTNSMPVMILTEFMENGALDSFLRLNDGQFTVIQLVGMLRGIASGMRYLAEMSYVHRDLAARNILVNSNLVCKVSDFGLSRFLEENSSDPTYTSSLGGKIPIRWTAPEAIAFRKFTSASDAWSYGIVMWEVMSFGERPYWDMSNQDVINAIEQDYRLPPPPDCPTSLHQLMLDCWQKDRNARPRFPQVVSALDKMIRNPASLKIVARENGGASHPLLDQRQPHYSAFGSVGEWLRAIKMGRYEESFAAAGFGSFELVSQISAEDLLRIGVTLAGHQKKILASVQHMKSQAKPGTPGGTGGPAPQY
Sequence of Tyrosine-protein kinase FRK (P42685 whole entry): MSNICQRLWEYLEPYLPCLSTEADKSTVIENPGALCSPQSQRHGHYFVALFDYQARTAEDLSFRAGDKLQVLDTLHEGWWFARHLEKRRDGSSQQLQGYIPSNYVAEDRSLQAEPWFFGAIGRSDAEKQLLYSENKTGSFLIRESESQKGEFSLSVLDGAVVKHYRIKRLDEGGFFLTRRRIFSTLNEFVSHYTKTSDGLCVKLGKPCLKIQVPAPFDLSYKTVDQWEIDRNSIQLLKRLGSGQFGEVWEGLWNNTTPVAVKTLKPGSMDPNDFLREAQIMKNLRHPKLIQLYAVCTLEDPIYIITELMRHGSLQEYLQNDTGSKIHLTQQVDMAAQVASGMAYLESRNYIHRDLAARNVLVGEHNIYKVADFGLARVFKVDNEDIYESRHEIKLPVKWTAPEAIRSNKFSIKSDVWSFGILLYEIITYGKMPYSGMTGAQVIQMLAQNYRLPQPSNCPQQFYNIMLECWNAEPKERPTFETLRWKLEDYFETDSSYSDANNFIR
Sequence of Tyrosine-protein kinase Yes (P07947 whole entry): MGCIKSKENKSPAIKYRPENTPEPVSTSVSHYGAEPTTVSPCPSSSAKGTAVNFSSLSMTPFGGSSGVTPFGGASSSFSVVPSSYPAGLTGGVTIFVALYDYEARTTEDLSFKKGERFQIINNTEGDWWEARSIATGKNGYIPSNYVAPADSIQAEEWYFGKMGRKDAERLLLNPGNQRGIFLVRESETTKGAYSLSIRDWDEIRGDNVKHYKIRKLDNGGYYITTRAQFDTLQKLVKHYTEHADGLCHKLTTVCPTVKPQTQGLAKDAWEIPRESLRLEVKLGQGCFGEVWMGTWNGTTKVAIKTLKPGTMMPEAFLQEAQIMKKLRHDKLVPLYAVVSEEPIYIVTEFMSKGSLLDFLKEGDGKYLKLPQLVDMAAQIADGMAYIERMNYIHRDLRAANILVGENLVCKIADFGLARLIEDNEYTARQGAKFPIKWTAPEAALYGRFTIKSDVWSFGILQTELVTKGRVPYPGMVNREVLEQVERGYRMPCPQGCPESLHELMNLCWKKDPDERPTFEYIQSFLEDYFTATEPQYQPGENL
Sequence of ALK tyrosine kinase receptor (Homo sapiens, UniProt Q9UM73, R1275Q) (Q9UM73 19-1620 R1275Q limits assumed): as the sequence (Q9UM73 19-1620 limits assumed) above, with R1257Q counted along it
Sequence of Tyrosine-protein kinase Lck (P06239 whole entry): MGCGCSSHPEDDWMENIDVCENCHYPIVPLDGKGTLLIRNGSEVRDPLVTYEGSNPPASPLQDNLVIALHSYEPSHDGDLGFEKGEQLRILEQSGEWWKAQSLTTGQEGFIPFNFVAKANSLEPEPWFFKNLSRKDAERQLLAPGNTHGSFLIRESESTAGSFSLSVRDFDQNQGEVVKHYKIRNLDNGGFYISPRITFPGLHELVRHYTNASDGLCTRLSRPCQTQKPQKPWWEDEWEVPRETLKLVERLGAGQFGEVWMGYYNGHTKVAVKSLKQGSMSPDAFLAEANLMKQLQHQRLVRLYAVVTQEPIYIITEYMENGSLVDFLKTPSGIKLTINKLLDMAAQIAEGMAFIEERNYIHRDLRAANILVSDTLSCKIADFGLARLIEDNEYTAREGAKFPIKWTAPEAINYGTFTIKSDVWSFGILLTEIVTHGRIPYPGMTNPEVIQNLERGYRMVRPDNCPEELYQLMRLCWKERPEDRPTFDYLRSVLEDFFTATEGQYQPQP
Sequence of ALK tyrosine kinase receptor (Homo sapiens, UniProt Q9UM73, F1174L) (Q9UM73 19-1620 F1174L limits assumed): as the sequence (Q9UM73 19-1620 limits assumed) above, with F1156L counted along it

For COc1cc(N2CCC(N3CCN(C)CC3)CC2)ccc1Nc1ncnc(Nc2ccccc2S(=O)(=O)C(C)C)n1 [ASP-3026], the Cmax [1] was 8990 ng/g, the Activity [2] was 20% and the pIC50 [3] was less than 6.00. For the same molecule, the Activity [4] was “Non-Toxic”, the pIC50 [5] was less than 6.00 and the pIC50 [6] was less than 6.00. For the same molecule, the pIC50 (Activated CDC42 kinase 1) was 8.24, the Kp at 120 h (in vivo [7]) was 19 and the Cmax [8] was 44.3 ng/mL. The Activity (Mus musculus) was “Active”, the Activity (NCI-H2228 [9]) was 4% and the pIC50 [10] was 7.21. For the same molecule, the pIC50 [11] was 8.00, the Kp at 120 h (in vivo [12]) was 22 and the Cmax [13] was 850 ng/g. The Activity [14] was 37%, the Activity (NCI-H2228 [15]) was “Active” and the pIC50 [16] was 7.07. It also gave a Tmax [17] of 4 h, a pIC50 [18] of 7.40 and a pIC50 [19] of 8.27. It also gave an MST (NCI-H2228-Luc [20]) of 79 days, an Activity [21] of 9% and a Cmax [22] of 2270 ng/g. The Tmax [23] was 4 h, the Activity [24] was 36% and the Activity [25] was “Non-Toxic”. It also gave an MST (NCI-H2228-Luc [26]) greater than 90 days, an MST (NCI-H2228-Luc [27]) of 56.5 days and a Tmax [28] of 4 h. It also gave a pIC50 (Ephrin type-B receptor 4) of less than 6.00, a pIC50 [29] of less than 7.00 and an Activity [30] of 101%. It also gave a pIC50 [31] of 7.50, a pIC50 (NCI-H2228 [32]) of 7.19 and a pIC50 [33] of less than 7.00.
